According to PubChem BioAssay (NCI):
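All cell lines were grown in 96-well plates and treated with compound for 48 hours. TGI denotes the concentration required for complete inhibition of growth.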

How the values were obtained:
Assay in all cases: NCI-60 cell line screen, 48 h
[1] = test system: DMS 114 small cell lung
[2] = test system: DMS 273 small cell lung
[3] = test system: HOP-18 NSCLC
[4] = test system: M19-MEL melanoma
[5] = test system: NCI-H23 lung
[6] = test system: NCI-H522 lung
[7] = test system: SW-620 colon
[8] = test system: UO-31 renal
[9] = test system: DLD-1 colon
[10] = test system: KM20L2 colon
[11] = test system: LXFL 529 NSCLC
[12] = test system: M14 melanoma
[13] = test system: RXF 393 renal
[14] = test system: RXF-631 renal
[15] = test system: SNB-78 CNS
[16] = test system: XF 498 CNS

Structure (SMILES): Cc1[nH]n(C(=O)Cc2ccccc2)c(=O)c1/C=C1\C(=O)C=Cc2ccccc21
- TGI [1]: > 100 µM
- TGI [2]: > 100 µM
- TGI [3]: 84.6 µM
- TGI [4]: > 100 µM
- TGI [5]: > 100 µM
- TGI [6]: > 100 µM
- TGI [7]: > 100 µM
- TGI [8]: 79.9 µM

Structure (SMILES): CS(=O)(=O)Sc1ccc(Cl)cc1
- TGI [9]: 27.2 µM
- TGI [2]: 17.4 µM
- TGI [3]: 55.4 µM
- TGI [10]: 24.3 µM
- TGI [11]: 23.3 µM
- TGI [12]: 25.8 µM
- TGI [4]: 21.2 µM
- TGI [5]: 27.7 µM
- TGI [6]: 9.47 µM
- TGI [13]: 20.8 µM
- TGI [14]: 20 µM
- TGI [15]: 15.6 µM
- TGI [7]: 25.3 µM
- TGI [8]: 13.3 µM
- TGI [16]: 22.7 µM

Structure (SMILES): Nc1cc2c(C3OC(CO)C(O)C3O)[nH]nc2c(=S)[nH]1 (stereo not drawn)
- TGI [9]: > 100 µM
- TGI [1]: > 100 µM
- TGI [2]: > 100 µM
- TGI [10]: > 100 µM
- TGI [11]: > 100 µM
- TGI [12]: > 100 µM
- TGI [4]: > 100 µM
- TGI [5]: > 100 µM
- TGI [6]: > 100 µM
- TGI [13]: > 100 µM
- TGI [14]: > 100 µM
- TGI [15]: > 100 µM
- TGI [7]: > 100 µM
- TGI [8]: > 100 µM
- TGI [16]: > 100 µM

Structure (SMILES): CSc1cnc2ccccc2c1Sc1cn(C)c2ccccc2c1=O
- TGI [9]: > 100 µM
- TGI [1]: 67.7 µM
- TGI [2]: > 100 µM
- TGI [3]: > 100 µM
- TGI [10]: > 100 µM
- TGI [12]: > 100 µM
- TGI [4]: > 100 µM
- TGI [5]: 65.7 µM
- TGI [13]: > 100 µM
- TGI [14]: 42.5 µM
- TGI [7]: > 100 µM
- TGI [8]: > 100 µM
- TGI [16]: 70.8 µM

Structure (SMILES): CC1CC(=O)C(CC(=O)O)[C@H]1C(C(=O)C(=O)Nc1cc(Cl)ccc1Cl)[N+](=O)[O-] (stereo partly drawn)
- TGI [9]: > 100 µM
- TGI [1]: > 100 µM
- TGI [3]: > 100 µM
- TGI [10]: > 100 µM
- TGI [4]: > 100 µM
- TGI [6]: > 100 µM
- TGI [13]: > 100 µM
- TGI [7]: > 100 µM
- TGI [8]: > 100 µM
- TGI [16]: > 100 µM

Structure (SMILES): O=C(O)OC12CCCCCC1C(=O)C1CCCCC12 (stereo not drawn)
- TGI [1]: > 100 µM
- TGI [2]: > 100 µM
- TGI [3]: > 100 µM
- TGI [10]: > 100 µM
- TGI [11]: > 100 µM
- TGI [12]: > 100 µM
- TGI [4]: > 100 µM
- TGI [5]: > 100 µM
- TGI [6]: > 100 µM
- TGI [13]: > 100 µM
- TGI [15]: > 100 µM
- TGI [7]: > 100 µM
- TGI [8]: > 100 µM
- TGI [16]: > 100 µM

Structure (SMILES): O=C1C(CN2CCCC2)CCC1CN1CCCC1 (stereo not drawn)
- TGI [12]: 29.7 µM
- TGI [5]: 38.2 µM
- TGI [6]: 3.52 µM
- TGI [13]: 37.2 µM
- TGI [7]: 11 µM
- TGI [8]: 32.1 µM

Structure (SMILES): CC(=O)OC(C(=O)NNC(=O)OC(C)(C)C)c1ccccc1 (stereo not drawn)
- TGI [12]: > 100 µM
- TGI [5]: > 100 µM
- TGI [6]: > 100 µM
- TGI [13]: > 100 µM
- TGI [7]: > 100 µM
- TGI [8]: > 100 µM

Structure (SMILES): C(#C[C@@]12CCC[C@@H]1NCO2)c1ccc2c(c1)OCO2
- TGI [12]: 73.1 µM
- TGI [5]: > 100 µM
- TGI [6]: > 100 µM
- TGI [13]: > 100 µM
- TGI [7]: > 100 µM
- TGI [8]: > 100 µM

Structure (SMILES): CCCCCCCC(=O)N1C2CC3CCC2(CS1(=O)=O)C3(C)C (stereo not drawn)
- TGI [12]: 41 µM
- TGI [5]: > 100 µM
- TGI [6]: 48.5 µM
- TGI [13]: 31.8 µM
- TGI [7]: 61.6 µM
- TGI [8]: 52.4 µM

Structure (SMILES): CCOC(=O)c1cn2c(n1)sc1cc([N+](=O)[O-])ccc12
- TGI [12]: > 100 µM
- TGI [5]: > 100 µM
- TGI [6]: > 100 µM
- TGI [13]: > 100 µM
- TGI [7]: > 100 µM
- TGI [8]: > 100 µM

Structure (SMILES): CC(=O)Nc1ccc2c3c(cc(O)c2c1)N(C(=O)CCCCCCC(=O)Nc1ccc2c4c(cc(O)c2c1)N(C(=O)OC(C)(C)C)CC4CCl)CC3CCl (stereo not drawn)
- TGI [12]: 0.374 µM
- TGI [5]: 0.346 µM
- TGI [6]: 0.405 µM
- TGI [13]: 0.0392 µM
- TGI [7]: > 36.3 µM
- TGI [8]: 3.35 µM

Structure (SMILES): COC1=C(OC)C(=O)c2cc(C)c(=O)c(C)cc2C1=O
- TGI [9]: 41.4 µM
- TGI [1]: 12.7 µM
- TGI [2]: 45.5 µM
- TGI [3]: 29.9 µM
- TGI [10]: 40 µM
- TGI [11]: 13.9 µM
- TGI [12]: 30.8 µM
- TGI [4]: 11.5 µM
- TGI [5]: 34.2 µM
- TGI [6]: 32.2 µM
- TGI [13]: 29.4 µM
- TGI [14]: > 100 µM
- TGI [15]: 45.5 µM
- TGI [7]: 20.7 µM
- TGI [8]: 27.9 µM

Structure (SMILES): COc1cc(N(CCC#N)CCC#N)ccc1/C(N=Nc1cccc([N+](=O)[O-])c1)=N\NC(=O)c1ccc(C)cc1
- TGI [12]: > 100 µM
- TGI [5]: > 100 µM
- TGI [6]: > 100 µM
- TGI [13]: > 100 µM
- TGI [7]: > 100 µM
- TGI [8]: > 100 µM

Structure (SMILES): COc1ccccc1Nc1nc(N)nc(N)c1N
- TGI [12]: > 100 µM
- TGI [5]: > 100 µM
- TGI [6]: 67 µM
- TGI [13]: > 100 µM
- TGI [7]: 72 µM
- TGI [8]: > 100 µM

Structure (SMILES): CN(C)CCC(C#N)(c1ccccc1)c1ccccc1
- TGI [12]: 50 µM
- TGI [5]: > 100 µM
- TGI [6]: > 100 µM
- TGI [13]: > 100 µM
- TGI [7]: > 100 µM
- TGI [8]: > 100 µM

Structure (SMILES): CC(=O)OC1=C(c2ccccc2)S(=O)(=O)c2ccccc21
- TGI [12]: > 100 µM
- TGI [5]: > 100 µM
- TGI [6]: > 100 µM
- TGI [13]: > 100 µM
- TGI [7]: > 100 µM
- TGI [8]: > 100 µM

Structure (SMILES): Cn1c2ccccc2n2c3ccccc3c3nnc(N)c-3c12
- TGI [12]: > 100 µM
- TGI [5]: > 100 µM
- TGI [6]: 26.2 µM
- TGI [13]: > 87.6 µM
- TGI [7]: > 100 µM
- TGI [8]: > 100 µM

Structure (SMILES): C[C@H]1CC(=O)C[C@@H]2CC[C@@H]3[C@H](CC[C@]4(C)C(OC(=O)c5cccc6c(=O)c7ccccc7[nH]c56)CC[C@@H]34)[C@]21C (stereo partly drawn)
- TGI [12]: > 100 µM
- TGI [5]: > 100 µM
- TGI [6]: 72.8 µM
- TGI [13]: > 100 µM
- TGI [7]: > 100 µM
- TGI [8]: 95.1 µM

Structure (SMILES): CCc1c(N=[N+]=[N-])c2ccccc2oc1=O
- TGI [12]: > 100 µM
- TGI [5]: > 100 µM
- TGI [6]: > 100 µM
- TGI [13]: > 100 µM
- TGI [7]: > 100 µM
- TGI [8]: > 100 µM
